Measured values taken from patent US10646489B2, “Compositions and methods for increasing energy metabolism” (NuSirt Sciences, Inc., priority 2012, dated 2020).

How the values were obtained:
3T3-L1 adipocytes [1] = experiment: Fatty acid oxidation in 3T3-L1 adipocytes / adipocytes; format: cell-based; details: p<0.05
Source text: (§1) Data expressed as % change from control value.*p<0.05. The output of the pathways can be measured using one or more methods, disclosed herein and/or known in the art. […] Mitochondrial biogenesis can be measured using a mitochondrial probe by using fluorescence. AMPK activity can be determined by measuring AMPK phosphorylation via an ELISA assay or by Western blot. Sirt1 activity can be determined by measuring deacetylation of a substrate, which can be detected using a fluorophore. […] Treatment with 0.5 mM leucine corresponds to a circulating level of the same molarity achieved by administering about 1,125 mg of dietary leucine to a human subject. Treatment with 0.25 mM leucine corresponds to a circulating level of the same molarity achieved by administering about 300 mg of dietary leucine to a human subject.

[2] = Dose-response of the PDE inhibitor alone (concentration without effect); format: cell-based
Protocol: (§2) Vinopocetine, which is a PDE 1 inhibitor, was tested in combination with leucine, HMB, and resveratrol for its effects on energy metabolism.
(§3) Two PDE 3 inhibitors were studied, amrinone and cilostamide, in combination with leucine and HMB for their effects on energy metabolism.
Two PDE 4 inhibitors were studied, rolipram and YM796, in combination with leucine and HMB for their effects on energy metabolism.
(§4) Icariin is a naturally occurring flavonol with significant PDE 5 inhibitory activity.

3T3-L1 adipocytes [3] = experiment: Glucose utilization (extracellular acidification response to glucose injection) in 3T3-L1 adipocytes / adipocytes; format: cell-based
Protocol: Glucose utilization was measured as extracellular acidification response to glucose injection. *p=0.05. […] Treatment with 0.5 mM leucine corresponds to a circulating level of the same molarity achieved by administering about 1,125 mg of dietary leucine to a human subject. Treatment with 0.25 mM leucine corresponds to a circulating level of the same molarity achieved by administering about 300 mg of dietary leucine to a human subject.

[4] = Synergy on energy metabolism (fat oxidation, glucose utilization), cell type not stated; format: cell-based
Protocol: as §2, §3, §4

C2C12 myotubes [5] = experiment: Fatty acid oxidation (O2 consumption response to palmitate injection) in C2C12 myotubes / muscle cells; format: cell-based; details: for increase in myotube fat oxidation, with HMB: PDE 5 inhibitor 1 nM with HMB (5 μM); for increase in myotube fat oxidation, with leucine: PDE 5 inhibitor 1 nM with leucine (0.5 mM); for increase in myotube fat oxidation, with resveratrol: PDE 5 inhibitor 1 nM with resveratrol (200 nM)
Protocol: as §1, with “Fatty acid oxidation was measured as O2 consumption response to palmitate injection and is expressed as % change from pre-injection baseline. […] Data” for “Data”, “value. *p=0.013; **p=0.015.” for “value.*p<0.05.”

C2C12 myotubes [6] = experiment: Nitric oxide production in C2C12 myotubes; format: cell-based; details: HMB or resveratrol, each, p<0.0001
Protocol: Treatment with 0.5 mM leucine corresponds to a circulating level of the same molarity achieved by administering about 1,125 mg of dietary leucine to a human subject. Treatment with 0.25 mM leucine corresponds to a circulating level of the same molarity achieved by administering about 300 mg of dietary leucine to a human subject.

C2C12 myotubes [7] = experiment: Mitochondrial biogenesis measured as mitochondrial mass in C2C12 myotubes; format: cell-based
Protocol: as §1, with “The” for “Data expressed as % change from control value.*p<0.05. The”

[8] = 25 mg/kg diet; ~4 mg/kg body weight; previous published studies; cited from earlier work
[9] = Substitution of leucine by other branched chain amino acids in the synergy with a PDE5 inhibitor
Source text: Branched chain amino acids that can be combined with a PDE-5 inhibitor have aliphatic side chains with a branch carbon atom that is bound to two or more other atoms. The other atoms may be carbon atoms. Examples of branched chain amino acids include leucine, isoleucine, and valine. Branched chain amino acids may also include other compounds, such as 4-hydroxyisoleucine. In some embodiments, the compositions are substantially free of one or more, or all of non-branched chain amino acids. In some embodiments, the compositions are substantially free of one or more, or all of non-branched chain amino acids in free amino acid form. For example, the compositions can be substantially free of […], and/or tyrosine. The compositions can be substantially free of […], and/or tyrosine in free amino acid form. In some embodiments, the branched chain amino acid is leucine. In some embodiments, the compositions may be substantially free of isoleucine and/or valine, which may be in free form. The synergistic effects between leucine and a PDE5 inhibitor, as described herein, are not observed when leucine is substituted with isoleucine and valine. Not wishing to be bound by any particular theory, isoleucine, valine, and leucine compete with each other for transport and/or absorption, and inclusion of isoleucine and valine in a composition would reduce the efficacy of any leucine in the composition. […]

AMPK [10] = experiment: AMPK activity / phosphorylation in muscle cells; format: cell-based
Source text: (§5) The output of the pathways can be measured using one or more methods, disclosed herein and/or known in the art. For example, fatty acid oxidation can be determined by measuring oxygen consumption, or 3H-labeled palmitate oxidation. Mitochondrial biogenesis can be measured using a mitochondrial probe by using fluorescence. AMPK activity can be determined by measuring AMPK phosphorylation via an ELISA assay or by Western blot. Sirt1 activity can be determined by measuring deacetylation of a substrate, which can be detected using a fluorophore.
(§6) Two PDE 4 inhibitors were studied, rolipram and YM796, in combination with leucine and HMB for their effects on energy metabolism. Dose-response indicate concentrations of 0.1 nM or below of rolipram and YM796 exert no effect; accordingly, this was the concentration used in these experiments. […] However, no synergy was found for glucose utilization or AMPK activation.

AMPK [11] = experiment: AMPK activation in adipocytes; format: cell-based; details: rolipram 0.1 nM combinations
Source text: as §5, §6

C2C12 myotubes [12] = experiment: Glucose utilization (extracellular acidification response to glucose injection) in C2C12 myotubes / muscle cells; format: cell-based
Protocol: Glucose utilization was measured as extracellular acidification response to glucose injection. *p=0.04. […] Treatment with 0.5 mM leucine corresponds to a circulating level of the same molarity achieved by administering about 1,125 mg of dietary leucine to a human subject. Treatment with 0.25 mM leucine corresponds to a circulating level of the same molarity achieved by administering about 300 mg of dietary leucine to a human subject.

diet-induced obese mouse = experiment: Post-prandial glucose, insulin and HOMAIR in the diet-induced obese mouse; format: in vivo; details: 14-day treatment
Protocol: The interactive effects of icariin, a flavanol with specific PDE5 inhibitory properties, on glycemia and insulin sensitivity were assessed in the diet-induced obese mouse, which can be used as a murine model of type 2 diabetes. Male C57/BL6 mice were placed on standard low-fat chow (control; 10% energy from fat) or high fat (60% energy from fat, Research Diets # D12492, Research Diets, Inc, New Brunswick, N.J.) at six weeks of age to induce insulin resistance. […], with 10 animals per group: Low fat diet (LFD) control; High fat diet (HFD) control; HFD+leucine (24 g/kg diet, a two-fold increase over control levels)1 HFD+leucine (24 g/kg diet)+icariin (25 mg/kg diet). […] Mice were fasted overnight (˜16 hours) prior to measurement of fasting blood glucose, insulin and glucose tolerance. Glucose tolerance was determined following measurement of fasting glucose via intraperitoneal administration of glucose (1.2 g/kg body weight) followed by blood glucose measurement at 15, 30, 60, 90 and 120 minutes. Post-prandial glucose was measured within one hour of cessation of eating. Insulin tolerance was measured via an insulin tolerance test (ITT). Food was removed 4-6 hours prior to ITT, and baseline blood glucose measured. The mice were then injected intraperitoneally with insulin (1.2 U/kg body weight) and blood glucose was measured 15, 30, 60, 90 and 120 minutes following insulin injection. The homeostasis model assessment of insulin resistance (HOMAIR) was used as a screening index of changes in insulin sensitivity. HOMAIR is calculated via standard formula from fasting plasma insulin and glucose as follows: HOMAIR=[Insulin (uU/mL)×glucose (mM)]/22.5. The plasma glucose and insulin concentrations were measured using the Glucose Assay Kit from Biovision (Milpitas, Calif.) and the Insulin kit from Millipore (Billerica, Mass.), respectively. CRP levels in plasma were determined by ELISA (CRP: Life Diagnostics, West Chester, Pa.).

[13] = vinpocetine 0.1 nM with either leucine (0.5 mM) or HMB (5 μM)

In the case of `CC(C)(O)CC(=O)O` [HMB, beta-hydroxymethylbutyrate], the “fatty acid oxidation, agent alone” value (3T3-L1 adipocytes [1]; 3T3-L1 adipocytes, leucine 0.5 mM or HMB 5 μM alone) is reported as 29%.

In the case of `CCOC(=O)C1=C[C@]2(CC)CCCN3CCc4c(n1c1ccccc41)[C@@H]32` [Vinpocetine], the “concentration that exerts no effect (dose-response)” value (shortened to “concentration that exerts no effect”) [2] is reported as at most 0.1 nM, the “increase in glucose utilization” value (3T3-L1 adipocytes [3]; adipocytes, vinpocetine 0.1 nM with low-dose resveratrol (200 nM), p=0.03) is reported as 70% and the “synergy with respect to fat oxidation” value [4, 13] is reported as “no synergy”. The “synergy with respect to glucose utilization” value [4, 13] was “no synergy”.

In the case of `Nc1cc(-c2ccncc2)c[nH]c1=O` [amrinone], the “synergy with either leucine or HMB (energy metabolism)” value ([4]; amrinone 10 nM) is reported as “no significant synergy”.

For `CN(C(=O)CCCOc1ccc2[nH]c(=O)ccc2c1)C1CCCCC1` [cilostamide], the “increase in fat oxidation” value (C2C12 myotubes [5]; muscle cells, cilostamide 10 nM combined with either leucine (0.5 mM) or HMB (5 μM), p<0.05) was 92% and the “increase in fat oxidation” value (3T3-L1 adipocytes [1]; adipocytes, cilostamide 10 nM combined with either leucine (0.5 mM) or HMB (5 μM)) was 58%.

For `COc1ccc(-c2oc3c(CC=C(C)C)c(O[C@@H]4O[C@H](CO)[C@@H](O)[C@H](O)[C@H]4O)cc(O)c3c(=O)c2O[C@@H]2O[C@@H](C)[C@H](O)[C@@H](O)[C@H]2O)cc1` [icariin], the “concentration that exerts no effect” value [2] was “below 1 nM”, the “increase in myotube fat oxidation, with HMB” value (C2C12 myotubes [5]; C2C12 myotubes) was 75% and the “increase in myotube fat oxidation, with leucine” value (C2C12 myotubes [5]; C2C12 myotubes) was 77%. The “increase in myotube fat oxidation, with resveratrol” value (C2C12 myotubes [5]; C2C12 myotubes) was 157%, the “synergy with respect to glucose utilization” value ([4]; icariin 1 nM) was “did not exhibit significant synergy” and the “effect on nitric oxide production” value (C2C12 myotubes [6]; icariin with leucine) was “modest, significant effects”. For the same molecule, the “synergy with both leucine and HMB to up regulate mitochondrial biogenesis” value (C2C12 myotubes [7]; icariin 1 nM, FIG. 13, p<0.001) was “significant synergy” and the “effect of the selected level” value [8] was “no effect”.

For `CC[C@H](C)[C@H](N)C(=O)O` [isoleucine], the “synergistic effects with a PDE5 inhibitor when substituted for leucine” value [9] was “not observed”.

With `Oc1ccc(/C=C/c2cc(O)cc(O)c2)cc1` [resveratrol, 3,5,4′-Trihydroxy-trans-stilbene] the “effect of resveratrol on the sildenafil interaction (mitochondrial biomass)” value (C2C12 myotubes [7]; FIG. 12) was “no significant effect” and the “interaction of resveratrol with icariin (mitochondrial biogenesis)” value (C2C12 myotubes [7]; FIG. 13) was “did not exhibit a significant interaction”.

With `COc1ccc(C2CNC(=O)C2)cc1OC1CCCC1` (stereo not drawn) [rolipram] the “synergistic effect with leucine, HMB or resveratrol with respect to AMPK activity” value (AMPK [10]; muscle cells, rolipram 0.1 nM) was “no synergistic effect”, the AMPK phosphorylation (AMPK [10]; rolipram alone, not augmented by leucine or HMB) was “activated” and the “synergistic effect with leucine, HMB or resveratrol with respect to fat oxidation” value (C2C12 myotubes [5]; muscle cells, rolipram 0.1 nM) was “no synergistic effect”. The “synergy for AMPK activation” value (AMPK [11]) was “no synergy”, the “synergistic effect with leucine, HMB or resveratrol with respect to glucose utilization” value (C2C12 myotubes [12]; muscle cells, rolipram 0.1 nM) was “no synergistic effect” and the “synergy for glucose utilization” value (3T3-L1 adipocytes [3]; adipocytes, rolipram 0.1 nM combinations) was “no synergy”.

In the case of `CCCc1nn(C)c2c(=O)[nH]c(-c3cc(S(=O)(=O)N4CCN(C)CC4)ccc3OCC)nc12` [sildenafil], the “concentration that exerts no effect” value [2] is reported as “below 1 nM”, the “increase in myotube fat oxidation, with HMB” value (C2C12 myotubes [5]; C2C12 myotubes) is reported as 203% and the “increase in myotube fat oxidation, with leucine” value (C2C12 myotubes [5]; C2C12 myotubes) is reported as 232%. For the same molecule, the “increase in myotube fat oxidation, with resveratrol” value (C2C12 myotubes [5]; C2C12 myotubes) was “no interaction”, the “fatty acid oxidation, agent alone” value (C2C12 myotubes [5]; C2C12 myotubes, sildenafil 1 nM (change from baseline) or leucine 0.5 mM alone) was “about 50%” and the “augmentation of myotube glucose utilization, with resveratrol” value (C2C12 myotubes [12]; C2C12 myotubes, sildenafil 1 nM with resveratrol 200 nM, p=0.04) was 53%. For the same molecule, the “synergy of HMB or resveratrol with sildenafil on glucose utilization” value (3T3-L1 adipocytes [3]; 3T3-L1 adipocytes) was “neither HMB nor resveratrol exerted any significant synergy” and the “increase in nitric oxide production” value (C2C12 myotubes [6]; sildenafil (1 nM) with leucine) was 15-30%.

In the case of `CC(C)[C@H](N)C(=O)O` [valine], the “synergistic effects with a PDE5 inhibitor when substituted for leucine” value [9] is reported as “not observed”.

With insulin the “decrease in HOMAIR vs. untreated HFD mice” value (diet-induced obese mouse) was about 40% and the “decrease in circulating (post-prandial) insulin vs. untreated HFD mice” value (diet-induced obese mouse) was about 30%.
